Values joined by “and” are separate entries in the source; they are usually repeats but may differ in a detail not shown here. Equal entries are not always repeated.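 A five-concentration, 48-hour dose response in 96-well plates underlies each endpoint, interpolated linearly between surrounding concentrations. GI50 = concentration required for 50% inhibition of growth. TGI is the concentration that stops growth completely.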
Columns and labels:
Test in all cases: NCI tumour cell line growth inhibition, 48 h
SK-MEL-28 melanoma = test system: SK-MEL-28 melanoma
786-0 renal = test system: 786-0 renal
MALME-3M melanoma = test system: MALME-3M melanoma
RPMI-8226 leukemia = test system: RPMI-8226 leukemia
IGROV1 ovarian = test system: IGROV1 ovarian
SF-268 CNS = test system: SF-268 CNS
SF-295 CNS = test system: SF-295 CNS
SNB-75 CNS = test system: SNB-75 CNS
M14 melanoma = test system: M14 melanoma
SK-MEL-5 melanoma = test system: SK-MEL-5 melanoma
SN12C renal = test system: SN12C renal

Structure (SMILES) | TGI (SK-MEL-28 melanoma) | TGI (786-0 renal) | TGI (MALME-3M melanoma) | TGI (RPMI-8226 leukemia) | TGI (IGROV1 ovarian) | TGI (SF-268 CNS) | TGI (SF-295 CNS) | TGI (SNB-75 CNS) | TGI (M14 melanoma) | TGI (SK-MEL-5 melanoma) | TGI (SN12C renal) | GI50 (SK-MEL-28 melanoma) | GI50 (MALME-3M melanoma) | GI50 (IGROV1 ovarian) | GI50 (SF-268 CNS) | GI50 (SF-295 CNS) | GI50 (SNB-75 CNS) | GI50 (M14 melanoma) | GI50 (SN12C renal)
O=C(/C(=C\C(=O)c1cccs1)c1ccsc1)c1ccc(Br)cc1 | > 100 µM | > 100 µM | > 100 µM | > 100 µM | > 100 µM | > 100 µM | > 100 µM | > 100 µM | > 100 µM | > 100 µM | > 100 µM |  |  |  |  |  |  |  | 
Cc1cc(/C=C\c2ccc3ccccc3[n+]2C)c(O)c2ncccc12 | 4.39 µM |  | 5.16 µM |  | 2.38 µM | 8.63 µM | 1.44 µM | 7.24 µM | 1.11 µM |  | 8.95 µM | 517 nM | 1170 nM | 0.413 µM | 486 nM | 0.0827 µM | 1.83 µM | 167 nM | 0.375 µM
O=CC(O)C(O)C(O)C(O)C(=O)NCCCCCCCCCCCCNC(=O)C(O)C(O)C(O)C(O)C=O (stereo not drawn) | > 100 µM | > 100 µM | > 100 µM |  | > 100 µM | > 100 µM | > 100 µM |  | > 100 µM | > 100 µM |  |  |  |  |  |  |  |  | 
COc1nc(N(C)C)nc2c1n(C)c[n+]2C | > 100 µM | > 100 µM | > 100 µM | > 100 µM | > 100 µM | > 100 µM | > 100 µM | > 100 µM | > 100 µM | > 100 µM | > 100 µM |  |  |  |  |  |  |  | 
COc1cc2nc(-c3ccc4ccccc4c3)[nH]c(=O)c2cc1OC |  | > 100 µM | > 100 µM | > 100 µM | > 100 µM | > 100 µM | > 100 µM | 58.3 µM | > 100 µM | > 100 µM | > 100 µM |  |  |  |  |  |  |  | 
C/C=C\C(CC(=O)NCCc1cn(C(=O)OCc2ccccc2)c2ccccc12)CC(=O)OC (stereo not drawn) | > 100 µM | > 100 µM | > 100 µM | > 100 µM | > 100 µM | > 100 µM | > 100 µM | > 100 µM | > 100 µM | > 100 µM |  |  |  |  |  |  |  |  | 
O=C(CSCC(=O)N/N=C/c1cccs1)N/N=C/c1cccs1 | > 100 µM | > 100 µM | > 100 µM | > 100 µM | > 100 µM | > 100 µM | > 100 µM | > 100 µM | > 100 µM | > 100 µM | > 100 µM |  |  |  |  |  |  |  | 
CC(C)=CCC[C@@H](C)C1=C(Nc2ccccc2Cl)C(O)=C(C)C(=O)C1=O | 33.5 µM | > 39.1 µM | 18.7 µM | > 28.7 µM | > 39.1 µM | 20.2 µM | 14 µM | 22.3 µM | 33.5 µM | 10.1 µM | 25.2 µM |  |  |  |  |  |  |  | 
Cc1nc2c3c(ncn2n1)Oc1c(c(-c2ccccc2)nn1-c1ccccc1)C3c1ccc(Cl)cc1 (stereo not drawn) | > 100 µM | > 100 µM | > 100 µM | > 100 µM | > 100 µM | > 100 µM | > 100 µM | > 100 µM | > 100 µM |  | > 100 µM |  |  |  |  |  |  |  | 
CC(=O)OCC1OC(n2c3c(c(-c4cccc5ccccc45)c(C#N)c2=S)CCCC3)C(OC(C)=O)C(OC(C)=O)C1OC(C)=O (stereo not drawn) | > 100 µM | > 100 µM | > 100 µM |  | > 100 µM | > 100 µM | > 100 µM |  | > 100 µM | > 100 µM | > 100 µM |  |  |  |  |  |  |  | 
CCOC(=O)C(=[N+]=[N-])C(=O)Nc1nn2nnnc2c2ccccc12 | > 100 µM | > 100 µM | > 100 µM | > 100 µM | > 100 µM |  | > 100 µM | > 100 µM | > 100 µM | > 100 µM | > 100 µM |  |  |  |  |  |  |  | 
O=C(NCc1cccc(C(F)(F)F)c1)c1cc2sccc2nc1C(F)(F)F | > 100 µM | 73.7 µM | > 100 µM | > 100 µM | > 100 µM | > 100 µM | > 100 µM |  | > 100 µM | > 100 µM | > 100 µM |  |  |  |  |  |  |  | 
Nc1cccc2c1C(=O)c1cccc(N)c1C2=O | > 100 µM | > 100 µM | > 100 µM | > 100 µM | > 100 µM | > 100 µM |  | > 100 µM | > 100 µM | > 100 µM | > 100 µM |  |  |  |  |  |  |  | 
O=[N+]([O-])c1ccc(S[C@@H]2[C@H]3c4c(-c5ccccc5)[nH]c(-c5ccccc5)c4[C@@H]2C[C@H]3Cl)cc1 | > 100 µM | 23.8 µM | 78.9 µM |  | > 100 µM | 25.7 µM | > 100 µM | 8.29 µM | > 100 µM | 23.5 µM | 22.2 µM |  |  |  |  |  |  |  | 
COc1ccc(N(C)C(=O)N(C)c2ccc([N+](=O)[O-])cc2)cc1 | > 100 µM | > 100 µM | > 100 µM | > 100 µM | > 100 µM | > 100 µM |  | > 100 µM | > 100 µM | > 100 µM | > 100 µM |  |  |  |  |  |  |  | 
Cn1nc2n(c1=O)CCCN2 | > 100 µM | > 100 µM | > 100 µM | > 100 µM | > 100 µM | > 100 µM | > 100 µM | > 100 µM |  | > 100 µM | > 100 µM |  |  |  |  |  |  |  | 
CC(=O)/C(=C/n1c(=S)[nH]c2ccccc21)C(=O)Nc1ccccc1C | > 100 µM | > 100 µM |  |  | > 100 µM | > 100 µM | > 100 µM | > 100 µM | > 100 µM | > 100 µM | > 100 µM |  |  |  |  |  |  |  | 
C/C(=C\c1ccccn1)c1ccccn1 | > 100 µM | > 100 µM | > 100 µM | > 100 µM | > 100 µM | > 100 µM | > 100 µM | > 100 µM | > 100 µM | > 100 µM |  |  |  |  |  |  |  |  | 
Cc1ccccc1-n1c(C)nc2c1C(=O)c1ccccc1C2=O | > 100 µM | > 100 µM | 41.3 µM |  |  | > 100 µM | > 100 µM |  | > 100 µM | 53.7 µM | > 100 µM |  |  |  |  |  |  |  | 
[Cl][Pt+2][Cl].[NH-]C1CCCCC1[NH-] (stereo not drawn) | 65.8 µM and 56.4 µM and 20.6 µM |  | 32.4 µM and 24 µM and 7.45 µM | > 50.5 µM | > 100 µM and 45.8 µM | 56.7 µM and > 100 µM and > 58.3 µM | > 100 µM | 97.6 µM and > 77.9 µM and 71 µM |  | 33 µM and 19.5 µM and 4.39 µM | > 100 µM |  | 10200 nM and 3390 nM and 1140 nM | 18.9 µM and 9.23 µM and 2.45 µM |  | 6.32 µM and 5.35 µM and 1.06 µM | 25.1 µM and 19.6 µM and 3.41 µM |  | 8.78 µM and 6.22 µM and 2.62 µM

Reference: PubChem BioAssay (NCI)
